From patent publication US9079866B2, “Flap modulators” (JANSSEN PHARMACEUTICA NV, priority 2013, dated 2015) come the findings set out here.

Structures can show the parent of a compound that is named as a salt. Where two headings read alike, the source gives them in different places.

Assay [1] has as its target human FLAP (Homo sapiens (Human), UniProt P20292). Put plainly: FLAP binding assay (HTRF format). In outline: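 Samples were run in duplicate on each of two plates and the plate results averaged. Read-out is the HTRF signal ratio.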
Assay [2] deals with leukotriene pathway in human whole blood (LTB4 levels). Put plainly: Human whole blood assay (A23187-stimulated LTB4). It counts as cell-based. As to conditions: Homo sapiens, read-out: LTB4 IC50 1:1. In a few lines: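 Single-replicate data from at least one healthy donor: compound pre-incubated 15 min at 37° Celsius in 1:1 RPMI-diluted heparinised blood, followed by 30 min calcium ionophore A23187 (7 μg/mL) challenge at 37° Celsius. LTB4 in plasma quantified by kit; IC50 via 4-parameter equation.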

Where [3] appears, read: human FLAP wild type, HTRF format, average of two plates, duplicates.
[4] abbreviates: human whole blood diluted 1:1 in RPMI, A23187-stimulated LTB4.
Setting [5] is: human whole blood diluted 1:1, A23187-stimulated.
The mark [6] stands for this setting: read-out: FLAP Binding wild type HTRF Ki.

human FLAP, sequence (P20292 whole entry): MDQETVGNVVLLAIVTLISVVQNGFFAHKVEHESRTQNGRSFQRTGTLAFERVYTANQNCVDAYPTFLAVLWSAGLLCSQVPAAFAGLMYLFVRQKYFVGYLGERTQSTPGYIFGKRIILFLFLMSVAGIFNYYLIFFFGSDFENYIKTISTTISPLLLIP

As for `Nc1ccc(-c2ccc(-c3ccccc3S(=O)(=O)NC3CCCCC3)cc2F)cn1` [Example 346, 4′-(6-Aminopyridin-3-yl)-N-cyclohexyl-3′-fluoro-[1,1′-biphenyl]-2-sulfonamide], in assay [1] (setting [3]), the Ki was found to be 5 nM. Moreover, the IC50 in assay [2] (setting [4]) amounted to 95 nM.
`Nc1cnc(-c2ccc(-c3ccccc3S(=O)(=O)N3C[C@H](O)[C@@H](N4CCCC4)C3)cc2F)cn1` (racemic) [Example 186, Racemic-1′-{[4′-(5-Aminopyrazin-2-yl)-3′-fluorobiphenyl-2-yl]sulfonyl}-1,3′-bipyrrolidin-4′-ol] gave a Ki in assay [1] (setting [3]) of 19 nM. The IC50 in assay [2] (setting [4]) was found to be 21 nM.
As for `CC(C)(C)NS(=O)(=O)c1ccccc1-c1ccc(-c2nnc(N)s2)c(F)c1` [Example 438, 4′-(5-Amino-1,3,4-thiadiazol-2-yl)-N-(tert-butyl)-3′-fluoro-[1,1′-biphenyl]-2-sulfonamide], in assay [1] (wild type FLAP, HTRF format), affinity was put at a Ki of 1 nM. Besides, in assay [2] (setting [5]), the IC50 stood at 17 nM.
With `Nc1cnc(-c2ccc(-c3ccccc3S(=O)(=O)N3CC(F)(F)C3)cc2F)cn1` [Example 52, 5-{2′-[(3,3-Difluoroazetidin-1-yl)sulfonyl]-3-fluorobiphenyl-4-yl}pyrazin-2-amine], the Ki in assay [1] (setting [3]) worked out at 4 nM. The IC50 in assay [2] (setting [4]) turned out to be 155 nM.
With `Nc1cnc(Sc2ccccc2-c2ccc(-c3cnc(N)nc3)c(F)c2)cn1` [Example 744, 5-{2′-[(5-Aminopyrazin-2-yl)sulfanyl]-3-fluorobiphenyl-4-yl}pyrimidin-2-amine], the Ki in assay [1] (wild type FLAP, HTRF format) was 15.5 nM. Moreover, the IC50 in assay [2] (setting [5]) is 132 nM.
In turn, `Nc1ncc(-c2ccc(-c3ccccc3NS(=O)(=O)N3CCCC3)cc2F)cn1` [Example 309, N-[4′-(2-Aminopyrimidin-5-yl)-3′-fluorobiphenyl-2-yl]pyrrolidine-1-sulfonamide] registered a Ki in assay [1] (setting [3]) of 214 nM. For the same compound, the IC50 in assay [2] (setting [4]) stood at 1780 nM.
As to `CC[C@H](CO)NS(=O)(=O)c1ccccc1-c1ccc(-c2cnc(N)cn2)c(F)c1` [Example 86, 4′-(5-Aminopyrazin-2-yl)-3′-fluoro-N-[(1R)-1-(hydroxymethyl)propyl]biphenyl-2-sulfonamide], affinity in assay [1] (setting [3]) was put at a Ki of 3 nM. Also, the IC50 in assay [2] (setting [4]) came to 27 nM.
In turn, `C[C@@H](O)CNS(=O)(=O)c1ccccc1-c1ccc(-c2cnc(N)nc2)nc1` [Example 689, 2-[6-(2-Aminopyrimidin-5-yl)pyridin-3-yl]-N-[(2R)-2-hydroxypropyl]benzenesulfonamide] had a Ki in assay [1] (wild type FLAP, HTRF format) of 485 nM. The IC50 in assay [2] (setting [5]) stood at 787 nM.
Compound `CS(=O)(=O)N1CCN(S(=O)(=O)c2ccccc2-c2ccc(-c3cnc(N)cn3)c(F)c2)CC1` [Example 56, 5-(3-Fluoro-2′-{[4-(methylsulfonyl)piperazin-1-yl]sulfonyl}biphenyl-4-yl)pyrazin-2-amine] came in with a Ki in assay [1] (setting [3]) of 11 nM. In assay [2] (setting [4]), the IC50 is 3520 nM.
Take `Nc1cnc(-c2ccc(-c3ccccc3CSc3ccncn3)cc2F)cn1` [Example 243, 5-(3-Fluoro-2′-((pyrimidin-4-ylthio)methyl)-[1,1′-biphenyl]-4-yl)pyrazin-2-amine hydrochloride]: the affinity in assay [1] (setting [3]), expressed as Ki, was 3 nM. Further, the IC50 in assay [2] (setting [4]) came out at 120 nM.
For the compound `CC(C)(C)NS(=O)(=O)c1ccccc1-c1ccc(-c2cnc3[nH]cc(CO)c3c2)c(F)c1` [Example 455, N-tert-Butyl-3′-fluoro-4′-[3-(hydroxymethyl)-1H-pyrrolo[2,3-b]pyridin-5-yl]biphenyl-2-sulfonamide], the affinity in assay [1] (wild type FLAP, HTRF format) corresponds to a Ki of 1 nM. Moreover, the IC50 in assay [2] (setting [5]) came to 94 nM.
`Nc1cnc(-c2ccc(-c3ccccc3S(=O)(=O)N[C@H](c3ccccc3)C(F)(F)F)cc2F)cn1` [Example 18, (R)-4′-(5-Aminopyrazin-2-yl)-3′-fluoro-N-[(1R)-2,2,2-trifluoro-1-phenylethyl]biphenyl-2-sulfonamide] registered a Ki in assay [1] (setting [3]) of 2 nM. The IC50 in assay [2] (setting [4]) turned out to be 70 nM.
In assay [1] (wild type FLAP, HTRF format), `Nc1cnc(-c2ccc(-c3ccc(C(F)(F)F)cc3Oc3ccnc(N)n3)cc2F)cn1` [Example 555, 4-{[4′-(5-Aminopyrazin-2-yl)-3′-fluoro-4-(trifluoromethyl)biphenyl-2-yl]oxy}pyrimidin-2-amine] displayed a Ki of 2 nM. For the same compound, the IC50 in assay [2] (setting [5]) was 24 nM.
Turning to `C[Si](C)(C)CCOCSc1ccccc1-c1ccc(-c2cnc(N)nc2)c(F)c1` [Example 340, 5-[3-Fluoro-2′-({[2-(trimethylsilyl)ethoxy]methyl}sulfanyl)biphenyl-4-yl]pyrimidin-2-amine], in assay [1] (setting [3]), the Ki was 104 nM. Further, the IC50 in assay [2] was 321 nM.
As for `Nc1cnc(-c2ccc(-c3ccccc3S(=O)(=O)NC3CCNCC3)cc2F)cn1` [Example 123, 4′-(5-Aminopyrazin-2-yl)-3′-fluoro-N-piperidin-4-ylbiphenyl-2-sulfonamide], the Ki in assay [1] (setting [3]) worked out at 83 nM. Also, the IC50 in assay [2] (setting [4]) was 1120 nM.
Compound `CC(C)(C)[C@H](CO)NS(=O)(=O)c1ccccc1-c1ccc(-c2cnc(N)cn2)c(F)c1` [Example 150, (R)-4′-(5-Aminopyrazin-2-yl)-3′-fluoro-N-(1-hydroxy-3,3-dimethylbutan-2-yl)-[1,1′-biphenyl]-2-sulfonamide] had a Ki in assay [1] (setting [3]) of 1 nM. In assay [2] (setting [4]), the IC50 came to 11 nM.
On to `NC(=O)C1CCN1S(=O)(=O)c1ccccc1-c1ccc(-c2cnc(N)cn2)c(F)c1` (racemic) [Example 139, Racemic 1-{[4′-(5-Aminopyrazin-2-yl)-3′-fluorobiphenyl-2-yl]sulfonyl}azetidine-2-carboxamide], for which affinity in assay [1] (setting [3]) was put at a Ki of 133 nM. In assay [2] (setting [4]), the IC50 was 341 nM.
The compound `CC[C@@H](CO)NS(=O)(=O)c1ccccc1-c1ccc(-c2cnc(N)cn2)c(F)c1` [Example 153, (S)-4′-(5-Aminopyrazin-2-yl)-3′-fluoro-N-(1-hydroxybutan-2-yl)-[1,1′-biphenyl]-2-sulfonamide] yielded a Ki in assay [1] (setting [3]) of 3 nM. The IC50 in assay [2] (setting [4]) is 7 nM.
As to `Nc1ncc(-c2ccc(-c3ccccc3S(=O)(=O)NCC3CC3)cc2F)cn1` [Example 283, 4′-(2-Aminopyrimidin-5-yl)-N-(cyclopropylmethyl)-3′-fluorobiphenyl-2-sulfonamide trifluoroacetic acid], in assay [1] (setting [3]), the affinity corresponds to a Ki of 9 nM. For the same compound, in assay [2] (setting [4]), the half-inhibitory concentration (IC50) came out at 119 nM.
`Cc1cccc(-c2ccc(-c3cnc(N)nc3)c(F)c2)c1S(=O)(=O)NC(C)(C)C` [Example 287, 4′-(2-Aminopyrimidin-5-yl)-N-tert-butyl-3′-fluoro-3-methylbiphenyl-2-sulfonamide trifluoroacetic acid salt] came in with a Ki in assay [1] (setting [3]) of 9 nM. Besides, the IC50 in assay [2] (setting [4]) was 74 nM.
For `Cc1nc(N)cc(Oc2ccccc2-c2ccc(-c3cnc(N)nc3)c(F)c2)n1` [Example 622, 5-{2′-[(6-Amino-2-methylpyrimidin-4-yl)oxy]-3-fluorobiphenyl-4-yl}pyrimidin-2-amine], the affinity in assay [1] (wild type FLAP, HTRF format) corresponds to a Ki of 46.1 nM. The IC50 in assay [2] (setting [5]) stood at 340 nM.
In turn, `Nc1cnc(-c2ccc(-c3ccc(C(F)(F)F)cc3C=O)cc2F)cn1` [Example 604, 4′-(5-Aminopyrazin-2-yl)-3′-fluoro-4-(trifluoromethyl)biphenyl-2-carbaldehyde] registered a Ki in assay [1] (wild type FLAP, HTRF format) of 5 nM. Also, the IC50 in assay [2] (setting [5]) turned out to be 89.4 nM.
In assay [1] (wild type FLAP, HTRF format), `CC(C)(C)NS(=O)(=O)c1ccccc1-c1ccc(-c2ccc(N)nn2)c(F)c1` [Example 417, 4′-(6-Aminopyridazin-3-yl)-N-tert-butyl-3′-fluorobiphenyl-2-sulfonamide] displayed a Ki of 108 nM. Also, the IC50 in assay [2] (setting [5]) was 726 nM.
With `Nc1cnc(-c2ccc(-c3ccccc3S(=O)(=O)N(C3CCOCC3)C3CC3)cc2F)cn1` [Example 140, 4′-(5-Aminopyrazin-2-yl)-N-cyclopropyl-3′-fluoro-N-(tetrahydro-2H-pyran-4-yl)biphenyl-2-sulfonamide], the Ki in assay [1] (setting [3]) came to 1 nM. Further, the IC50 in assay [2] (setting [4]) is 11 nM.
In the case of `Nc1cnc(-c2ccc(-c3ccccc3CS(=O)(=O)N[C@H]3CC[C@H](O)CC3)cc2F)cn1` [Example 226, 1-[4′-(5-Aminopyrazin-2-yl)-3′-fluorobiphenyl-2-yl]-N-(trans-4-hydroxycyclohexyl)-methanesulfonamide formic acid salt], the Ki in assay [1] (setting [6]) was found to be 211 nM. Further, the IC50 in assay [2] (setting [4]) was 329 nM.
`Cc1nc(-c2ccc(-c3ccccc3S(=O)(=O)NC(C)(C)C)cc2F)cnc1N` [Example 445, 4′-(5-Amino-6-methylpyrazin-2-yl)-N-tert-butyl-3′-fluorobiphenyl-2-sulfonamide] showed a Ki in assay [1] (wild type FLAP, HTRF format) of 1 nM. The 50% inhibitory concentration (IC50) in assay [2] (setting [5]) was determined as 8 nM.
Turning to `O=S(=O)(c1ccccc1-c1ccc(-c2cnc3[nH]ccc3n2)c(F)c1)N1CCCCC1` [Example 374, 2-[3-Fluoro-2′-(piperidin-1-ylsulfonyl)biphenyl-4-yl]-5H-pyrrolo[2,3-b]pyrazine], the Ki in assay [1] (setting [3]) stood at 1 nM. Further, the IC50 in assay [2] (setting [4]) worked out at 11 nM.
Regarding `Nc1cc(Oc2ccccc2-c2ccc(-c3cnc(N)nc3)c(F)c2)ccn1` [Example 639, 5-{2′-[(2-Aminopyridin-4-yl)oxy]-3-fluorobiphenyl-4-yl}pyrimidin-2-amine], in assay [1] (wild type FLAP, HTRF format), the Ki is 7.2 nM. Also, the IC50 in assay [2] (setting [5]) was determined as 67 nM.
As to `Nc1ncc(-c2ccc(-c3ccccc3S(=O)(=O)N3CCN(CCO)CC3)cc2F)cn1` [Example 282, 2-(4-{[4′-(2-Aminopyrimidin-5-yl)-3′-fluorobiphenyl-2-yl]sulfonyl}piperazin-1-yl)ethanol trifluoroacetic acid salt], the Ki in assay [1] (setting [6]) came to 750 nM. The IC50 in assay [2] (setting [4]) was 280 nM.
`Nc1cnc(-c2ccc(-c3ccccc3S(=O)(=O)N3C[C@@H]4C(N)[C@@H]4C3)cc2F)cn1` (stereo partly drawn) [Example 143, endo-3-((4′-(5-Aminopyrazin-2-yl)-3′-fluoro-[1,1′-biphenyl]-2-yl)sulfonyl)-3-azabicyclo[3.1.0]hexan-6-amine]: in assay [1] (setting [3]), affinity was put at a Ki of 8 nM. The IC50 in assay [2] (setting [4]) came to 49 nM.

A word on the Ki: it is a measure of affinity in units of concentration, obtained from inhibition or displacement. The IC50 is the concentration that inhibits the measured activity by half.
